Patent publication US20140273093A1, “METHODS OF PRODUCING ANTIBODIES IN YEAST” (BRISTOL-MYERS SQUIBB COMPANY, priority 2013, published 2014)

Tested on: P. pastoris
Test: P. pastoris fed-batch fermentation Run 01MAY11: effects of hydroxyurea on cell growth and anti-IL-6 antibody productivity
Assay type: cell-based, Pichia pastoris
Conditions: for Sup Titer / WCW / WB Titer: Lots T5, T6 & T10; for Sup Titer / WB Titer: hydroxyurea 2.6-2.8 g/L; for WCW: hydroxyurea 2.6-2.8 g/L added 5 hours after feed start; for WB Titer: calculated from supernatant titer and WCW
Procedure: The glucose and ethanol were measured by YSI 2700 (YSI Incorporated, Yellow Springs, Ohio), O2 and CO2 of the exhaust line were measured by Questor GP Process Mass Spectrometer (ABB Extrel, Pittsburg, Pa.) and the RQ value was calculated using below Equation [1]. The wet cell weight (WCW) was measured by centrifuging 1 milliliter (mL) fermentation broth at 13,200 rpm for 10 minutes, weighing pellet, and calculated ratio of pellets weight (g) over volume (mL). The supernatant titer (g/L) was measured by the HPLC method and the whole broth (WB) titer was then calculated by below Equation [2].
WB_Titer=Supernatant_Titer*(1−WCW/1000)
The treatment cultures were operated the same way plus adding hydroxyurea 5 hours after feed start.

**Q.** Which “average whole broth titer” value (90 hours run time, three hydroxyurea treatment lots, control 59.8) does the source give for `NC(=O)NO` [Hydroxyurea] here?
**A.** 75 normalized units

**Q.** And the “Sup Titer” value (Age 59 h)?
**A.** 83.9 ± 2.2 Normalized

**Q.** And the WCW (Age 59 h)?
**A.** 437 ± 17 g/kg

**Q.** And the “WB Titer” value (Age 59 h)?
**A.** 47.2 ± 1.8 Normalized

**Q.** And the “Sup Titer” value (Age 90 h)?
**A.** 123.3 ± 5.8 Normalized

**Q.** What about the WCW (Age 90 h) of the same molecule?
**A.** 392 ± 20 g/kg

**Q.** What about the “WB Titer” value (Age 90 h) of the same molecule?
**A.** 75.0 ± 2.7 Normalized

**Q.** What about the “WCW reached/maintained by hydroxyurea treatment lots” value (after peak cell density at 30-40 hours, control lots ~400 g/Kg) of the same molecule?
**A.** ~450 g/kg
